Assay results from US7625875B2 (priority 2002, dated 2009).
“And” between values parts separate entries of the source, which are not always exact repeats. Equal values may be shown once. Read-outs that look alike come from different tables or passages of the source.

Legend:
[1] = tested on: CVB-4; type: cell-based, Coxsackievirus B-4
[2] = tested on: MT-4 human T-lymphocyte cells
[3] = tested on: Vero 76, African green monkey kidney cells
[4] = tested on: BHK
[5] = tested on: REO-1; test: microbe, parasite or virus in culture; type: cell-based, double-stranded RNA Reovirus
[6] = tested on: CVA-9; type: cell-based, Coxsackievirus A-9
[7] = tested on: CVB-2; test: organism not typed; type: cell-based, Coxsackie B-2 virus
[8] = tested on: WNV; test: microbe, parasite or virus in culture; type: cell-based, West Nile virus; settings: read-out: WNV
[9] = tested on: DENV 2; test: microbe, parasite or virus in culture; type: cell-based, dengue virus; settings: read-out: DENV 2
[10] = tested on: YFV; type: cell-based, yellow fever virus; settings: Tables 30b, 30k-30o
[11] = tested on: CVB-3; type: cell-based, Coxsackievirus B-3
[12] = tested on: BVDV; type: cell-based, bovine viral diarrhea virus
[13] = tested on: Sb-1; test: organism not typed; type: cell-based, Sabin type 1 poliomyelitis virus
[14] = tested on: HepG2 cells; test: Incorporation of drug into cellular RNA and DNA; settings: 10 μM [3H] drug, 30 hours
[15] = tested on: HepG2 cells; test: Mitochondrial DNA content; type: cell-based, human; settings: for mtDNA/nuclear DNA (% of Control): 1 μM
Experimental: To assess the potential of mCyd to produce mitochondrial toxicity, several in vitro studies were conducted using the human hepatoma cell lines HepG2 or Huh7.
The significance of this finding is unclear, particularly since mCyd is unlikely to attain a plasma concentration of 50 μM in the clinic. For comparison, lactic acid production increases by 100% over control cells in cells treated with 10 μM FIAU (Cui L, Yoon, et al. J. Clin. Invest. 1995; 95:555-563).

[16] = tested on: HepG2 cells; test: Transmission electron microscopy of mitochondrial ultrastructure; settings: 10 μM, 14 days

Row | SMILES | EC50 [1] [µM] | CC50 [2] [µM] | CC50 [3] [µM] | CC50 [4] [µM] | EC50 ([5]; read-out: EC50 REO-1) [µM] | EC50 ([5]; read-out: REO) [µM] | EC50 [6] [µM] | EC50 ([7]; read-out: CVB-2) [µM] | EC50 ([7]; read-out: EC50 CVB-2) [µM] | EC50 [8] [µM] | EC50 [9] [µM] | EC50 [10] [µM] | EC50 [11] [µM] | EC50 [12] [µM] | EC50 ([13]; read-out: Sb-1) [µM] | other results
1 | C[C@]1(CO)O[C@@H](n2ccc(=S)[nH]c2=O)[C@H](O)[C@@H]1O |  |  |  |  |  |  |  |  |  |  |  |  |  |  |  | melting point: 65 to 70 °C (dec.)
2 | Cc1cn([C@@H]2O[C@](C)(CO)[C@@H](O)[C@H]2O)c(=O)[nH]c1=O |  |  |  |  |  |  |  |  |  |  |  |  |  |  |  | melting point: 258 to 260 °C (dec.)
3 | C[C@]1(CO)O[C@@H](n2cnc3c(N)ncnc32)[C@H](O)[C@@H]1O |  |  |  |  |  |  |  |  |  |  |  |  |  |  |  | melting point: 96 to 97 °C (dec.)
4 | C[C@@]1(O)[C@H](O)[C@@H](CO)O[C@H]1n1cnc2c(N)ncnc21 [Compound A, β-D-2′-C-methyl-adenosine] | 13 | 4 | 80 | 70 | > 70 | > 70 | 12 | 7 | 10 | 3.6 | 2.7 | 2.7 | 14 | 1.2 |  | 
5 | C[C@@]1(O)[C@H](O)[C@@H](CO)O[C@H]1n1cnc2c(N)nc(N)nc21 [Compound B, β-D-2′-C-methyl-2-amino adenosine] | 32 | > 100 | > 100 | 50 | 2 | 2 | 39 | 76 | 75 | 0.3 | 0.7 | 0.8 | 23 | 2.1 | 90 | EC50 ([13]; read-out: EC50 Sb-1): 90 µM
6 | C[C@@]1(O)[C@H](O)[C@@H](CO)O[C@H]1n1cnc2c(=O)[nH]c(N)nc21 [Compound C, β-D-2′-C-methyl-guanosine] | 12 | > 100 | > 100 | 100 | 2 | 2 | 46 | 29 | 30 | 0.6 | 1.4 | 1.2 | 22 | 3.5 | 50 | 
7 | C[C@@]1(O)[C@H](O)[C@@H](CO)O[C@H]1n1cnc2c(Cl)nc(N)nc21 [Compound D, β-D-2′-C-methyl-6-chloro-guanosine] | 25 | > 100 | > 100 | 30 | 0.4 | 0.4 | 37 | 25 | 25 | 0.3 | 0.7 | 1 | 21 | 0.7 | 50 | EC50 ([13]; read-out: EC50 Sb-1): 50 µM
8 | CC(C)[C@H](N)C(=O)OC[C@H]1O[C@@H](n2cnc3c(=O)[nH]c(N)nc32)[C@](C)(O)[C@@H]1OC(=O)[C@@H](N)C(C)C [Compound E, 3′,5′-di-O-valinyl ester of β-D-2′-C-methyl-guanosine] | 35 | > 100 | > 100 | 100 | 2 | 2.1 | 40 | 33 | 33 | 1 | 1.4 | 1 | 30 | 4.9 | 55 | 
9 | C#C[C@@]1(O)[C@H](O)[C@@H](CO)O[C@H]1n1cnc2c(N)ncnc21 [Compound H, β-D-2′-C-ethynyl-adenosine] | 2 | 4.6 | 60 | 15 | 6 | 6 | 2.5 | 1.2 | 1.5 | 1 | 1.1 | 2 | 1 | 0.4 | 0.7 | 
10 | C#C[C@@]1(O)[C@H](O)[C@@H](CO)O[C@H]1n1ccc(N)nc1=O [Compound I, β-D-2′-C-ethynyl-cytidine] | 24 | ≥ 100 | > 100 | > 100 | > 100 |  | 59 |  | 33 |  |  |  | 33 |  |  | EC50 ([13]; read-out: EC50 Sb-1): 26 µM
11 | Nc1nc(N)c2ncn([C@@H]3O[C@H](CO)[C@@H](O)[C@H]3O)c2n1 [Compound J, β-D-2-amino-adenosine] | 50 | 50 | > 100 | > 100 | > 100 |  | 53 |  | 53 |  |  |  | 55 |  |  | EC50 ([13]; read-out: EC50 Sb-1): 40 µM
12 | C[C@@]1(O)[C@H](O)[C@@H](CO)O[C@H]1n1cnc2c(NC3CC3)nc(N)nc21 [Compound K, β-D-2′-C-methyl-2-amino-6-cyclopropyl adenosine] |  | > 100 |  |  |  | 9.5 |  | > 100 |  | 3.5 | 4.9 | 10 |  | 18 | > 100 | 
13 | CC(C(=O)c1ccccc1)n1c(N)nc2c(ncn2[C@@H]2O[C@H](CO)[C@@H](O)[C@@]2(C)O)c1=O (stereo partly drawn) [Compound L, β-D-2′-C-methyl-1-(methyl-2-oxo-2-phenylethyl)guanosine] |  | > 100 |  |  |  | 12 |  | > 100 |  | 3 | 4.4 | 6 |  | 12 | > 100 | 
14 | Cc1cn([C@H]2C[C@H](N=[N+]=[N-])[C@@H](CO)O2)c(=O)[nH]c1=O [ZDV, zidovudine] |  |  |  |  |  |  |  |  |  |  |  |  |  |  |  | Incorporated drug amount, DNA [14]: 0.103 pmole/μg DNA and 0.103 ± 0.0123^a pmole/μg DNA; Incorporated drug amount, RNA [14]: 0.0009 pmole/μg RNA and 0.0009 ± 0.0003^a pmole/μg RNA
15 | Nc1ccn([C@H]2CC[C@@H](CO)O2)c(=O)n1 [ddC, zalcitabine, reference compound] |  |  |  |  |  |  |  |  |  |  |  |  |  |  |  | Incorporated drug amount, DNA [14]: 0.0055 pmole/μg DNA and 0.0055^b pmole/μg DNA; Incorporated drug amount, RNA [14]: 0.0013 pmole/μg RNA and 0.0013^b pmole/μg RNA; mtDNA/nuclear DNA (% of Control) ([15]; 6 day treatment): 44.3 ± 9.3 % of Control; mtDNA/nuclear DNA (% of Control) ([15]; 14 day treatment): 19.6 ± 8.2 % of Control; reduction of mitochondrial DNA content ([15]; 6 days): 56%; reduction of mitochondrial DNA content ([15]; 14 days): 80%; Electron Microscopy, Lipid Droplet Form. [16]: Positive; Electron Microscopy, Mito. Morphol. [16]: Loss of Cristae
